Measured values published in the NIST ThermoML archive (doi:10.1021/je201009c).

Assay: xn = mol fraction of the nth substance listed
Details: for surface tension liquid-gas: Capillary rise; for viscosity / mass density: 100.8 kPa, Liquid; for viscosity: Falling or rolling sphere viscometry; for mass density: Vibrating tube method

OCc1ccccc1 [benzenemethanol] + CCO
Details	mass density [kg/m3]	surface tension liquid-gas [mN/m]	viscosity [mPa·s]
293.15 K, x2 = 0	1045.44	39.2	6.287
293.15 K, x2 = 0.05	1038.93	38.7	5.903
293.15 K, x2 = 0.1	1032.01	38.1	5.548
293.15 K, x2 = 0.1504	1024.72	37.5	5.197
293.15 K, x2 = 0.1999	1017.09	36.8	4.871
293.15 K, x2 = 0.2502	1008.95	36.1	4.55
293.15 K, x2 = 0.3003	1000.31	35.3	4.236
293.15 K, x2 = 0.3499	991.24	34.5	3.94
293.15 K, x2 = 0.3998	981.52	33.6	3.655
293.15 K, x2 = 0.45	971.12	32.7	3.377
293.15 K, x2 = 0.5001	960.01	31.8	3.107
293.15 K, x2 = 0.55	948.23	30.9	2.857
293.15 K, x2 = 0.5999	935.57	29.9	2.623
293.15 K, x2 = 0.65	921.93	28.9	2.392
293.15 K, x2 = 0.6997	907.34	28	2.169
293.15 K, x2 = 0.75	891.49	27.1	1.971
293.15 K, x2 = 0.7999	874.42	26.1	1.782
293.15 K, x2 = 0.8496	855.94	25.2	1.611
293.15 K, x2 = 0.8998	835.44	24.3	1.454
293.15 K, x2 = 0.95	813.26	23.3	1.305
303.15 K, x2 = 0	1037.45	38.1	4.579
303.15 K, x2 = 0.05	1030.91	37.5	4.276
303.15 K, x2 = 0.1	1024.02	36.9	4.006
303.15 K, x2 = 0.1504	1016.76	36.2	3.761
303.15 K, x2 = 0.1999	1009.06	35.5	3.529
303.15 K, x2 = 0.2502	1000.9	34.8	3.321
303.15 K, x2 = 0.3003	992.29	34.1	3.117
303.15 K, x2 = 0.3499	983.16	33.3	2.924
303.15 K, x2 = 0.3998	973.34	32.5	2.735
303.15 K, x2 = 0.45	962.91	31.6	2.542
303.15 K, x2 = 0.5001	951.76	30.7	2.368
303.15 K, x2 = 0.55	939.95	29.8	2.206
303.15 K, x2 = 0.5999	927.33	28.8	2.03
303.15 K, x2 = 0.65	913.64	27.8	1.873
303.15 K, x2 = 0.6997	898.99	26.9	1.716
303.15 K, x2 = 0.75	883.14	26	1.568
303.15 K, x2 = 0.7999	865.99	25.1	1.423
303.15 K, x2 = 0.8496	847.51	24.2	1.292
303.15 K, x2 = 0.8998	827.13	23.3	1.173
303.15 K, x2 = 0.95	805.04	22.3	1.06
313.15 K, x2 = 0	1029.61	37.2	3.335
313.15 K, x2 = 0.05	1023.04	36.6	3.171
313.15 K, x2 = 0.1	1016.21	35.9	3.002
313.15 K, x2 = 0.1504	1008.86	35.3	2.841
313.15 K, x2 = 0.1999	1001.16	34.6	2.688
313.15 K, x2 = 0.2502	992.96	33.9	2.539
313.15 K, x2 = 0.3003	984.28	33.2	2.389
313.15 K, x2 = 0.3499	975.05	32.4	2.244
313.15 K, x2 = 0.3998	965.24	31.6	2.101
313.15 K, x2 = 0.45	954.84	30.7	1.955
313.15 K, x2 = 0.5001	943.67	29.8	1.819
313.15 K, x2 = 0.55	931.78	28.9	1.684
313.15 K, x2 = 0.5999	919.04	27.9	1.561
313.15 K, x2 = 0.65	905.41	26.9	1.441
313.15 K, x2 = 0.6997	890.69	26	1.332
313.15 K, x2 = 0.75	874.75	25.1	1.236
313.15 K, x2 = 0.7999	857.51	24.2	1.146
313.15 K, x2 = 0.8496	838.83	23.3	1.048
313.15 K, x2 = 0.8998	818.48	22.4	0.972
313.15 K, x2 = 0.95	796.32	21.5	0.899
323.15 K, x2 = 0	1021.5	36.3	2.545
323.15 K, x2 = 0.05	1014.86	35.6	2.439
323.15 K, x2 = 0.1	1007.98	34.9	2.337
323.15 K, x2 = 0.1504	1000.57	34.2	2.238
323.15 K, x2 = 0.1999	992.89	33.5	2.142
323.15 K, x2 = 0.2502	984.67	32.8	2.041
323.15 K, x2 = 0.3003	975.99	32.1	1.941
323.15 K, x2 = 0.3499	966.71	31.3	1.844
323.15 K, x2 = 0.3998	956.84	30.5	1.746
323.15 K, x2 = 0.45	946.37	29.6	1.649
323.15 K, x2 = 0.5001	935.23	28.7	1.556
323.15 K, x2 = 0.55	923.28	27.8	1.462
323.15 K, x2 = 0.5999	910.48	26.8	1.368
323.15 K, x2 = 0.65	896.61	25.8	1.279
323.15 K, x2 = 0.6997	881.89	24.8	1.189
323.15 K, x2 = 0.75	865.88	23.9	1.105
323.15 K, x2 = 0.7999	848.64	23	1.022
323.15 K, x2 = 0.8496	830.07	22.1	0.937
323.15 K, x2 = 0.8998	809.62	21.2	0.854
323.15 K, x2 = 0.95	787.41	20.3	0.774
